Reference: patent US20190183890A1, “METHODS AND COMPOSITIONS FOR PROMOTING HAIR GROWTH” (Rophe Pharma, Inc., priority 2016, published 2019)

How the values were obtained:
[1] = system: androgenic alopecia
[2] = system: androgenic alopecia; details: topical

Cl.NNc1nncc2ccccc12 [hydralazine, 1-hydrazinophthalazine monohydrochloride]
men with visible enhancement in hair count and hair thickness ([1]; 12 men aged 33-69 years, 150, then 300, then 600 mg/100 ml, after 6-8 weeks of treatment): 11 out of the 12
treatment time to visible enhancement in hair count and hair thickness ([1]; 12 men, 150 to 600 mg/100 ml): 6-8 weeks
onset of effect compared with Rogaine ([1]; 12 men, visible enhancement after 6-8 weeks): much faster onset of effect than Rogaine
hair regrowth ([2]; 0.2% solution in glycol, alcohol and water, over 200 patients, mostly androgenic alopecia): hair grew back
time until hair growth visible ([2]; 0.2% solution, treatment has to be continued every month to sustain the hair): visible after the first month
